Biological target: T1, Cytochrome P450 165B3 (Amycolatopsis orientalis, UniProt Q8RN04)
T1 sequence (Q8RN04 whole entry): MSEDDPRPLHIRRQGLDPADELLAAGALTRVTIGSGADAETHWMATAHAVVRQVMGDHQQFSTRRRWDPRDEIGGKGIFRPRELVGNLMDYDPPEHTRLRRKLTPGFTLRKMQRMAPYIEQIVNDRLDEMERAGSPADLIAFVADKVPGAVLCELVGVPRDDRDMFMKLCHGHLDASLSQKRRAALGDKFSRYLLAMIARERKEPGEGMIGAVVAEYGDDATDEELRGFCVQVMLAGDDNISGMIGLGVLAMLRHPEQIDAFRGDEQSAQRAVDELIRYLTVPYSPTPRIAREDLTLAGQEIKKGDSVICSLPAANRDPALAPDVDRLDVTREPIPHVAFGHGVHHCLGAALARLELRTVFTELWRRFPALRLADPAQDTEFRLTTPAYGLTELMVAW
Assay: Binding affinity to Amycolatopsis orientalis OxyB

Row | Structure (SMILES) | Kd
1 | CN[C@H](CC(C)C)C(=O)N[C@H](Cc1ccc(O)cc1)C(=O)N[C@@H](CC(N)=O)C(=O)N[C@@H](C(=O)N[C@@H](C(=O)N[C@@H](Cc1ccc(O)cc1)C(=O)O)c1ccc(O)cc1)c1ccc(O)cc1 | 17 µM
2 | CN[C@H](CC(C)C)C(=O)N[C@H](Cc1ccc(O)cc1)C(=O)N[C@@H](CC(N)=O)C(=O)N[C@@H](C(=O)N[C@@H](C(=O)N[C@H](Cc1ccc(O)cc1)C(=O)O)c1ccc(O)cc1)c1ccc(O)cc1 | 35 µM
